# Measured values published in US20240300980A1, “HETEROCYCLIC COMPOUNDS AS KRAS INHIBITOR, AND PREPARATION THEREFOR AND USE THEREOF IN TREATMENT” (SHANGHAI KECHOW PHARMA, INC., priority 2021, published 2024).
# System: AGS cells (KRAS^G12D)
# Assay: Detection of cell proliferation in vitro by MTT/MTS method (cell activity experiment)
# Assay type: cell-based
# Conditions: Homo sapiens, AGS, 72 h, AGS cells; MTT/MTS; 3 days of drug treatment; read-out: AGS IC50
# Outline: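 KRAS G12D AGS cells seeded at 1000 per well, compound added 24 h later, 0.5% final DMSO. Viability read after 3 days of treatment by MTT (solubilised in DMSO) or MTS, 4 h, absorbance 490 nm. IC50 from dose–response curves versus DMSO control.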
row,SMILES,IC50
1,"C#Cc1c(F)ccc2cc(O)cc(-c3ncc4c(N5CC6CC(C5)N6)nc(OC[C@@]56CCCN5C[C@H](F)C6)nc4c3F)c12 [Example 45, 4-(4-(3,6-diazabicyclo [3.1.1]heptan-3-yl)-8-fluoro-2-(((2R,7aS)-2-fluorotetrahydro-1H-pyrrolizin-7a(5H)-yl)methoxy)pyrido[4,3-d]pyrimidin-7-yl)-5-ethynyl-6-fluoronaphthalen-2-ol]",39 nM
2,"C#Cc1cc2c(N3C[C@H]4CC[C@@H](C3)N4)nc(OC[C@@]34CCCN3C[C@H](F)C4)nc2c(F)c1-c1cc(O)cc2c1C(C)CCC2 (stereo partly drawn) [Example 374, 4-(4-((1R,5S)-3,8-diazabicyclo[3.2.1]octan-3-yl)-6-ethynyl-8-fluoro-2-(((2R,7aS)-2-fluorotetrahydro-1H-pyrrolizin-7a(5H)-yl)methoxy)quinazolin-7-yl)-5-methyl-5,6,7,8-tetrahydronaphthalen-2-ol]",32 nM
3,"C#Cc1c(F)ccc2cc(O)cc(-c3ccc4c(N5CCC6(CCCS6(=O)=O)CC5)nc(OC[C@@]56CCCN5C[C@H](F)C6)nc4c3F)c12 [Example 110, 8-(7-(8-ethynyl-7-fluoro-3-hydroxynaphthalen-1-yl)-8-fluoro-2-(((2R, 7aS)-2-fluorotetrahydro-1H-pyrrolizin-7a(5H)-yl)methoxy)quinazolin-4-yl)-1-thia-8-azaspiro [4.5]decane 1,1-dioxide]",> 2500 nM
4,"C#Cc1cc2c(N3C[C@H]4CC[C@@H](C3)N4)nc(OC[C@@]34CCCN3C[C@H](F)C4)nc2c(F)c1-c1cc(O)cc2c1C(CC)C1CC21 (stereo partly drawn) [Example 372, 5-(4-((1R,5S)-3,8-diazabicyclo[3.2.1]octan-3-yl)-6-ethynyl-8-fluoro-2-(((2R,7aS)-2-fluorotetrahydro-1H-pyrrolizin-7a(5H)-yl)methoxy)quinazolin-7-yl)-6-ethyl-1,1a,6,6a-tetrahydrocyclopropa[a]inden-3-ol]",65 nM
5,"C#Cc1c(F)ccc2cc(O)cc(-c3ncc4c(N5CC(C#N)C5)nc(OC[C@@]56CCCN5C[C@H](F)C6)nc4c3F)c12 [Example 69, 1-(7-(8-ethynyl-7-fluoro-3-hydroxynaphthalen-1-yl)-8-fluoro-2-(((2R, 7aS)-2-fluorotetrahydro-1H-pyrrolizin-7a(5H)-yl)methoxy)pyrido[4,3-d]pyrimidin-4-yl) azetidine-3-carbonitrile]",411 nM
6,"CC1(C)CCCc2cc(O)cc(-c3ncc4c(N5C[C@H]6CC[C@@H](C5)N6)nc(OC[C@@]56CCCN5C[C@H](F)C6)nc4c3F)c21 [Example 254, 4-(4-((1R,5S)-3,8-diazabicyclo[3.2.1]octan-3-yl)-8-fluoro-2-(((2R,7aS)-2-fluorotetrahydro-1H-pyrrolizin-7a(5H)-yl)methoxy)pyrido[4,3-d]pyrimidin-7-yl)-5,5-dimethyl-5,6,7,8-tetrahydronaphthalen-2-ol]",462 nM

# Second part, the compound after the results:
row,IC50,SMILES
1,586 nM,"C#Cc1c(F)ccc2cc(O)cc(-c3ccc4c(N5CC(C#N)C5)nc(OC[C@@]56CCCN5C[C@H](F)C6)nc4c3F)c12 [Example 134, 1-(7-(8-ethynyl-7-fluoro-3-hydroxynaphthalen-1-yl)-8-fluoro-2-(((2R, 7aS)-2-fluorotetrahydro-1H-pyrrolizin-7a(5H)-yl)methoxy)quinazolin-4-yl)azetidine-3-carbonitrile]"
2,320 nM,"CCc1c(F)ccc2cc(O)cc(-c3ncc4c(N5C[C@H]6CC[C@@H](C5)O6)nc(OC[C@@]56CCCN5C[C@H](F)C6)nc4c3F)c12 [Example 13, 4-(4-((1R,5S)-8-oxa-3-azabicyclo[3.2.1]octan-3-yl)-8-fluoro-2-(((2R,7aS)-2-fluorotetrahydro-1H-pyrrolizin-7a(5H)-yl)methoxy)pyrido[4,3-d]pyrimidin-7-yl)-5-ethyl-6-fluoronaphthalen-2-ol]"
3,40.5 nM,"C#Cc1c(F)ccc2cc(O)cc(-c3ccc4c(N5CC6CCC5CN6)nc(OC[C@@]56CCCN5C[C@H](F)C6)nc4c3F)c12 (stereo partly drawn) [Example 108, 4-(4-(2,5-diazabicyclo [2.2.2]octan-2-yl)-8-fluoro-2-(((2R,7aS)-2-fluorotetrahydro-1H-pyrrolizin-7a(5H)-yl)methoxy)quinazolin-7-yl)-5-ethynyl-6-fluoronaphthalen-2-ol]"
